From the supplement of paper PMC9663587

Experiments:
Test in all cases: GR value, 72 h; higher = faster growth (1 = untreated, <0 = killing);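 note: breast cancer and non-malignant breast epithelial lines, nine half-log doses, viable cells counted by Hoechst and LIVE/DEAD dye imaging versus time-zero plates and DMSO controls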
TGX221 = compound: CC1=CN2C(=O)C=C(N=C2C(=C1)C(C)NC3=CC=CC=C3)N4CCOCC4 [TGX221]
[1] = compound: CCC1=CN=CN=C1N2CCN(CC2)CC3=NC4=C(N3)C=C(C=C4)C(F)(F)F
[2] = compound: CCCCOc1c(C(=O)c2c(F)cc(C)cc2F)c[nH]c2nncc1-2
BSJ-01-175 = compound: CN(C)C/C=C/C(=O)Nc1ccc(O[C@@H]2CCC[C@@H](Nc3ncc(Cl)c(-c4c[nH]c5ccccc45)n3)C2)cc1 [BSJ-01-175]
[3] = compound: CO[C@@H](C)Cn1c(=O)n(C)c2cnc3ccc(-c4cncc(C(C)(C)O)c4)cc3c21
Everolimus = compound: CO[C@H]1C[C@@H]2CC[C@@H](C)[C@@](O)(O2)C(=O)C(=O)N2CCCC[C@H]2C(=O)O[C@H]([C@H](C)C[C@@H]2CC[C@@H](OCCO)[C@H](OC)C2)CC(=O)[C@H](C)/C=C(\C)[C@@H](O)[C@@H](OC)C(=O)[C@H](C)C[C@H](C)/C=C/C=C/C=C/1C [Everolimus]
[4] = compound: COc1cccc(OCCCN)c1-c1cc(Nc2cnc(C#N)cn2)n[nH]1
Alpelisib/BYL719 = compound: Cc1nc(NC(=O)N2CCC[C@H]2C(N)=O)sc1-c1ccnc(C(C)(C)C(F)(F)F)c1 [Alpelisib/BYL719]
Dasatinib = compound: Cc1nc(Nc2ncc(C(=O)Nc3c(C)cccc3Cl)s2)cc(N2CCN(CCO)CC2)n1 [Dasatinib]
[5] = compound: Cc1nn(C)c(COc2ccc(N3CCN(S(=O)(=O)N(C)C)CC3)cc2)c1-c1cccc2c(CCCOc3cccc4ccccc34)c(C(=O)O)n(CCN3CCOCC3)c12
AZD5363 = compound: NC1(C(=O)N[C@@H](CCO)c2ccc(Cl)cc2)CCN(c2nc[nH]c3nccc2-3)CC1 [AZD5363]
Olaparib/AZD2281 = compound: O=C(c1cc(Cc2n[nH]c(=O)c3ccccc23)ccc1F)N1CCN(C(=O)C2CC2)CC1 [Olaparib/AZD2281]

AU565
GR value (TGX221; 0.001 µM): 0.923 GR | GR value (TGX221; 0.003162 µM): 0.912 GR | GR value (TGX221; 0.01 µM): 0.868 GR | GR value (TGX221; 0.03162 µM): 0.964 GR | GR value (TGX221; 0.1 µM): 0.916 GR | GR value (TGX221; 0.3162 µM): 0.889 GR | GR value (TGX221; 1 µM): 0.919 GR | GR value (TGX221; 3.162 µM): 0.852 GR | GR value (TGX221; 10 µM): 0.58 GR | GR value ([1]; 0.001 µM): 1.03 GR | GR value ([1]; 0.003162 µM): 1.08 GR | GR value ([1]; 0.01 µM): 1.01 GR | GR value ([1]; 0.03162 µM): 1.09 GR | GR value ([1]; 0.1 µM): 0.997 GR | GR value ([1]; 0.3162 µM): 0.985 GR | GR value ([1]; 1 µM): 0.932 GR | GR value ([1]; 3.162 µM): 0.808 GR | GR value ([1]; 10 µM): 0.486 GR | GR value ([2]; 0.001 µM): 0.763 GR | GR value ([2]; 0.003162 µM): 0.828 GR | GR value ([2]; 0.01 µM): 0.656 GR | GR value ([2]; 0.03162 µM): 0.622 GR | GR value ([2]; 0.1 µM): 0.545 GR | GR value ([2]; 0.3162 µM): 0.489 GR | GR value ([2]; 1 µM): 0.372 GR | GR value ([2]; 3.162 µM): 0.0322 GR | GR value ([2]; 10 µM): -0.151 GR | GR value (BSJ-01-175; 0.001 µM): 0.954 GR | GR value (BSJ-01-175; 0.003162 µM): 0.82 GR | GR value (BSJ-01-175; 0.01 µM): 0.24 GR | GR value (BSJ-01-175; 0.03162 µM): -0.144 GR | GR value (BSJ-01-175; 0.1 µM): -0.164 GR | GR value (BSJ-01-175; 0.3162 µM): -0.381 GR | GR value (BSJ-01-175; 1 µM): -0.45 GR | GR value (BSJ-01-175; 3.162 µM): -0.505 GR | GR value (BSJ-01-175; 10 µM): -0.777 GR | GR value ([3]; 0.001 µM): 0.518 GR | GR value ([3]; 0.003162 µM): 0.487 GR | GR value ([3]; 0.01 µM): 0.464 GR | GR value ([3]; 0.03162 µM): 0.273 GR | GR value ([3]; 0.1 µM): 0.269 GR | GR value ([3]; 0.3162 µM): 0.0911 GR | GR value ([3]; 1 µM): 0.0661 GR | GR value ([3]; 3.162 µM): -0.0273 GR | GR value ([3]; 10 µM): -0.533 GR | GR value (Everolimus; 0.001 µM): 0.523 GR | GR value (Everolimus; 0.003162 µM): 0.451 GR | GR value (Everolimus; 0.01 µM): 0.429 GR | GR value (Everolimus; 0.03162 µM): 0.494 GR | GR value (Everolimus; 0.1 µM): 0.396 GR | GR value (Everolimus; 0.3162 µM): 0.509 GR | GR value (Everolimus; 1 µM): 0.408 GR | GR value (Everolimus; 3.162 µM): 0.454 GR | GR value (Everolimus; 10 µM): 0.398 GR | GR value ([4]; 10 pM): 0.889 GR | GR value ([4]; 31.6 pM): 0.97 GR | GR value ([4]; 0.0001 µM): 1.1 GR | GR value ([4]; 0.0003162 µM): 1.09 GR | GR value ([4]; 0.001 µM): 0.219 GR | GR value ([4]; 0.003162 µM): 0.112 GR | GR value ([4]; 0.01 µM): 0.0322 GR | GR value ([4]; 0.03162 µM): 0.0412 GR | GR value ([4]; 0.1 µM): 0.077 GR | GR value (Alpelisib/BYL719; 0.001 µM): 0.962 GR | GR value (Alpelisib/BYL719; 0.003162 µM): 1.06 GR | GR value (Alpelisib/BYL719; 0.01 µM): 0.931 GR | GR value (Alpelisib/BYL719; 0.03162 µM): 0.762 GR | GR value (Alpelisib/BYL719; 0.1 µM): 0.621 GR | GR value (Alpelisib/BYL719; 0.3162 µM): 0.504 GR | GR value (Alpelisib/BYL719; 1 µM): 0.215 GR | GR value (Alpelisib/BYL719; 3.162 µM): -0.0201 GR | GR value (Alpelisib/BYL719; 10 µM): -0.464 GR | GR value (Dasatinib; 0.001 µM): 0.873 GR | GR value (Dasatinib; 0.003162 µM): 0.908 GR | GR value (Dasatinib; 0.01 µM): 0.966 GR | GR value (Dasatinib; 0.03162 µM): 0.961 GR | GR value (Dasatinib; 0.1 µM): 0.877 GR | GR value (Dasatinib; 0.3162 µM): 0.963 GR | GR value (Dasatinib; 1 µM): 0.875 GR | GR value (Dasatinib; 3.162 µM): 0.73 GR | GR value (Dasatinib; 10 µM): 0.274 GR | GR value ([5]; 0.001 µM): 1.03 GR | GR value ([5]; 0.003162 µM): 1.04 GR | GR value ([5]; 0.01 µM): 1.09 GR | GR value ([5]; 0.03162 µM): 1.03 GR | GR value ([5]; 0.1 µM): 1.06 GR | GR value ([5]; 0.3162 µM): 1.05 GR | GR value ([5]; 1 µM): 1.03 GR | GR value ([5]; 3.162 µM): 1.05 GR | GR value ([5]; 10 µM): 0.613 GR | GR value (AZD5363; 0.001 µM): 1.15 GR | GR value (AZD5363; 0.003162 µM): 0.991 GR | GR value (AZD5363; 0.01 µM): 0.884 GR | GR value (AZD5363; 0.03162 µM): 0.793 GR | GR value (AZD5363; 0.1 µM): 0.786 GR | GR value (AZD5363; 0.3162 µM): 0.717 GR | GR value (AZD5363; 1 µM): 0.655 GR | GR value (AZD5363; 3.162 µM): 0.682 GR | GR value (AZD5363; 10 µM): 0.399 GR | GR value (Olaparib/AZD2281; 0.001 µM): 0.901 GR | GR value (Olaparib/AZD2281; 0.003162 µM): 1 GR | GR value (Olaparib/AZD2281; 0.01 µM): 1.02 GR | GR value (Olaparib/AZD2281; 0.03162 µM): 1.04 GR | GR value (Olaparib/AZD2281; 0.1 µM): 1 GR | GR value (Olaparib/AZD2281; 0.3162 µM): 0.907 GR | GR value (Olaparib/AZD2281; 1 µM): 0.942 GR | GR value (Olaparib/AZD2281; 3.162 µM): 0.979 GR | GR value (Olaparib/AZD2281; 10 µM): 0.577 GR
